Measured values as given in ChEMBL document CHEMBL1201862, “PubChem BioAssay data set” (2004).
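The compound was tested at five concentrations on cells cultured in 96-well plates, with a 48-hour exposure period. Here, GI50 denotes the concentration required for 50% inhibition of growth.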 Calls of active or inactive are those of the source. Cut-off read from the data, not from the text of the source: active = GI50 up to about 1.1 µM and inactive = higher.

Experiments:
Experiment in all cases: growth of human tumour cells (NCI), 48 h
[1] = system: UO-31
[2] = system: CAKI-1
[3] = system: IGROV-1
[4] = system: SR
[5] = system: LOX IMVI
[6] = system: NCI-H460
[7] = system: SF-539
[8] = system: MOLT-4
[9] = system: CCRF-CEM
[10] = system: KM12
[11] = system: UACC-257
[12] = system: TK-10
[13] = system: SK-MEL-5
[14] = system: U-251
[15] = system: NCI-H23
[16] = system: M19-MEL
[17] = system: HOP-92
[18] = system: OVCAR-3
[19] = system: EKVX
[20] = system: M14
[21] = system: HOP-62
[22] = system: SNB-75
[23] = system: Malme-3M
[24] = system: SNB-78
[25] = system: COLO 205
[26] = system: 786-0
[27] = system: DLD-1
[28] = system: UACC-62
[29] = system: DMS-114
[30] = system: NCI-H226
[31] = system: HOP-18
[32] = system: HL-60
[33] = system: SK-MEL-28
[34] = system: RPMI-8226
[35] = system: HCT-116
[36] = system: A549
[37] = system: A498
[38] = system: ACHN
[39] = system: SNB-19
[40] = system: RXF 393
[41] = system: SW-620
[42] = system: HCC 2998
[43] = system: HT-29
[44] = system: K562
[45] = system: XF498
[46] = system: SN12C
[47] = system: SK-OV-3
[48] = system: OVCAR-5
[49] = system: NCI-H522
[50] = system: RXF 631
[51] = system: KM-20L2
[52] = system: SF-295
[53] = system: OVCAR-8
[54] = system: SK-MEL-2
[55] = system: DMS-273
[56] = system: LXFL 529
[57] = system: SF-268
[58] = system: OVCAR-4
[59] = system: MDA-MB-435
[60] = system: PC-3
[61] = system: MDA-MB-231
[62] = system: T47D
[63] = system: NCI/ADR-RES
[64] = system: BT-549
[65] = system: HCT-15
[66] = system: DU-145
[67] = system: MCF7
[68] = system: Hs-578T
[69] = system: MDA-N

NC1(C(=O)O)CCC(C(=O)O)CC1 (configuration not stated)
GI50 [1]: > 100 µM (inactive) | GI50 [2]: > 100 µM (inactive) | GI50 [3]: > 100 µM (inactive) | GI50 [4]: > 100 µM (inactive) | GI50 [5]: > 100 µM (inactive) | GI50 [6]: > 100 µM (inactive) | GI50 [7]: > 100 µM (inactive) | GI50 [8]: > 100 µM (inactive) | GI50 [9]: > 100 µM (inactive) | GI50 [10]: > 100 µM (inactive) | GI50 [11]: > 100 µM (inactive) | GI50 [12]: > 100 µM (inactive) | GI50 [13]: > 100 µM (inactive) | GI50 [14]: > 100 µM (inactive) | GI50 [15]: > 100 µM (inactive) | GI50 [16]: > 100 µM (inactive) | GI50 [17]: > 100 µM (inactive) | GI50 [18]: > 100 µM (inactive) | GI50 [19]: > 100 µM (inactive) | GI50 [20]: > 100 µM (inactive) | GI50 [21]: > 100 µM (inactive) | GI50 [22]: > 100 µM (inactive) | GI50 [23]: > 100 µM (inactive) | GI50 [24]: > 100 µM (inactive) | GI50 [25]: > 100 µM (inactive) | GI50 [26]: > 100 µM (inactive) | GI50 [27]: > 100 µM (inactive) | GI50 [28]: > 100 µM (inactive) | GI50 [29]: > 100 µM (inactive) | GI50 [30]: > 100 µM (inactive) | GI50 [31]: > 100 µM (inactive) | GI50 [32]: > 100 µM (inactive) | GI50 [33]: > 100 µM (inactive) | GI50 [34]: > 100 µM (inactive) | GI50 [35]: > 100 µM (inactive) | GI50 [36]: > 100 µM (inactive) | GI50 [37]: > 100 µM (inactive) | GI50 [38]: > 100 µM (inactive) | GI50 [39]: > 100 µM (inactive) | GI50 [40]: > 100 µM (inactive) | GI50 [41]: > 100 µM (inactive) | GI50 [42]: > 100 µM (inactive) | GI50 [43]: > 100 µM (inactive) | GI50 [44]: > 100 µM (inactive) | GI50 [45]: > 100 µM (inactive) | GI50 [46]: > 100 µM (inactive) | GI50 [47]: > 100 µM (inactive) | GI50 [48]: > 100 µM (inactive) | GI50 [49]: > 100 µM (inactive) | GI50 [50]: > 100 µM (inactive) | GI50 [51]: > 100 µM (inactive) | GI50 [52]: > 100 µM (inactive) | GI50 [53]: > 100 µM (inactive) | GI50 [54]: > 100 µM (inactive) | GI50 [55]: > 100 µM (inactive) | GI50 [56]: > 100 µM (inactive) | GI50 [57]: > 100 µM (inactive) | GI50 [58]: > 100 µM (inactive)

Cc1oc2c(c1C(=O)c1ccccc1)C(=O)c1ccccc1C2=O
GI50 [59]: 1.58 µM (inactive) | GI50 [1]: 9.75 µM (inactive) | GI50 [2]: 4.23 µM (inactive) | GI50 [3]: 4.99 µM (inactive) | GI50 [4]: 3.24 µM (inactive) | GI50 [5]: 2.22 µM (inactive) | GI50 [6]: 9.38 µM (inactive) | GI50 [60]: 6.79 µM (inactive) | GI50 [7]: 10.6 µM (inactive) | GI50 [8]: 2.47 µM (inactive) | GI50 [9]: 2.16 µM (inactive) | GI50 [10]: 6.55 µM (inactive) | GI50 [11]: 3.61 µM (inactive) | GI50 [12]: 19.1 µM (inactive) | GI50 [13]: 1.24 µM (inactive) | GI50 [61]: 2.24 µM (inactive) | GI50 [14]: 7.24 µM (inactive) | GI50 [15]: 2.01 µM (inactive) | GI50 [16]: 2.18 µM (inactive) | GI50 [17]: 2.21 µM (inactive) | GI50 [18]: 2.26 µM (inactive) | GI50 [19]: 12.6 µM (inactive) | GI50 [20]: 4.28 µM (inactive) | GI50 [21]: 14.2 µM (inactive) | GI50 [22]: 6.78 µM (inactive) | GI50 [23]: 1.81 µM (inactive) | GI50 [24]: > 100 µM (inactive) | GI50 [25]: 13.9 µM (inactive) | GI50 [26]: 4.38 µM (inactive) | GI50 [27]: 5.02 µM (inactive) | GI50 [28]: 2.98 µM (inactive) | GI50 [29]: 2.45 µM (inactive) | GI50 [30]: 13.9 µM (inactive) | GI50 [31]: 16.6 µM (inactive) | GI50 [32]: 2.28 µM (inactive) | GI50 [33]: 11.1 µM (inactive) | GI50 [34]: 2.85 µM (inactive) | GI50 [35]: 3.3 µM (inactive) | GI50 [62]: 3.83 µM (inactive) | GI50 [36]: 14.7 µM (inactive) | GI50 [37]: 19.7 µM (inactive) | GI50 [63]: 3.52 µM (inactive) | GI50 [38]: 4.65 µM (inactive) | GI50 [39]: 9.91 µM (inactive) | GI50 [64]: 6.19 µM (inactive) | GI50 [65]: 4.51 µM | GI50 [40]: 3.48 µM (inactive) | GI50 [41]: 1.92 µM (inactive) | GI50 [66]: 11.8 µM (inactive) | GI50 [42]: 15.5 µM (inactive) | GI50 [43]: 17.8 µM (inactive) | GI50 [44]: 2.23 µM (inactive) | GI50 [45]: 2.32 µM (inactive) | GI50 [46]: 11.7 µM (inactive) | GI50 [47]: 12.5 µM (inactive) | GI50 [48]: 15.2 µM (inactive) | GI50 [49]: 2.3 µM (inactive) | GI50 [50]: 17.7 µM (inactive) | GI50 [51]: 17.7 µM (inactive) | GI50 [52]: 9.27 µM (inactive) | GI50 [67]: 4.07 µM (inactive) | GI50 [53]: 5.06 µM (inactive) | GI50 [54]: 3.26 µM (inactive) | GI50 [55]: 8.34 µM (inactive) | GI50 [56]: 1.62 µM (inactive) | GI50 [57]: 10.8 µM (inactive) | GI50 [68]: 4.57 µM (inactive) | GI50 [58]: 3.21 µM (inactive) | GI50 [69]: 2 µM (inactive)
